# Values of other authors, collected in US12383593B2, “Organic pain relief and hair growth composition” (The Tao Talit Corporation, priority 2021, dated 2025).
# Legend:
# orofacial nociception = settings: in comparison with S. lavandulifolia essential oil
# [1] = test system: MAPKs and the NF-κB pathway; settings: mouse peritoneal macrophages
# [2] = test system: capsaicin irritancy, sprains, heat hypersensitivity and headaches
smiles,measurement,setting,value
"CC(C)=CCCC(C)(O)C1CC=C(C)CC1 (stereo not drawn) [(−)-α-bisabolol, 6-methyl-2-(4-methylcyclohex-3-en-1-yl)-hept-5-en-2-ol]",antinociceptive effect in the pain models,orofacial nociception,stronger effect
same,solubility in ethanol,ethanol,soluble
same,solubility in water and glycerin,water and glycerin,poorly soluble
"CC1=CCC2CC1C2(C)C (stereo not drawn) [Alpha-pinene, α-pinene]",anti-inflammatory activity,[1],anti-inflammatory activity through the suppression of mitogen-activated protein kinases (MAPKs) and the nuclear factor-kappa B (NF-κB) pathway
C=C1C2CCC(C2)C1(C)C (stereo not drawn) [Camphene],solubility in organic solvents,,very soluble
same,solubility in water,,nearly insoluble
"C=C(C)[C@H]1CC=C(C)CC1 [limonene, Limonene]",action on a lymphoma cell line,lymphoma cell line; lymphoma cell line,anti-proliferative action
same,normal lymphocyte viability,lymphoma cell line; normal lymphocytes,without modifying normal lymphocyte viability
"CC1CCC(C(C)C)C(O)C1 (stereo not drawn) [menthol, Menthol]",cold allodynia and hyperalgesia,"[2]; high concentrations, topical use or intraplantar injection",generated cold allodynia and hyperalgesia
same,analgesic effect of topically applied menthol,"[2]; low to moderate concentrations, topical","inhibit capsaicin irritancy, sprains, heat hypersensitivity and headaches"
Cc1ccc(C(C)C)cc1 [p-Cymene],solubility in organic solvents,,miscible
same,solubility in water,,insoluble
